Among the data in PubChem BioAssay AID463203 (Broad Institute, 2010) are AC50 values, retold here.

Activity calls are given as the source filed them.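 How the source made its calls: active means more than half of replicate measurements showing over 20% loss of kinase signal relative to plate controls; inconclusive means some but at most half of replicates over 20% loss; inactive means no replicate over 20% signal loss.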

By AC50 is commonly meant the concentration at which the activity in the assay is half-maximal.

This assay deals with Glycogen synthase kinase-3 alpha (Homo sapiens) (UniProt P49840). As to the kind of experiment: concentration-response blocking of human GSK3A – biochemical, luminescence, cell-free homogeneous, retest, dose response (AID 463203). The conditions noted are these: GSK-3 alpha enzyme, ADP-Glo luminescence, 60 min. In general terms: ADP-Glo turns the ADP formed in a reaction into a luminescent signal.
Glycogen synthase kinase-3 alpha (Homo sapiens), sequence (P49840 whole entry, looked up): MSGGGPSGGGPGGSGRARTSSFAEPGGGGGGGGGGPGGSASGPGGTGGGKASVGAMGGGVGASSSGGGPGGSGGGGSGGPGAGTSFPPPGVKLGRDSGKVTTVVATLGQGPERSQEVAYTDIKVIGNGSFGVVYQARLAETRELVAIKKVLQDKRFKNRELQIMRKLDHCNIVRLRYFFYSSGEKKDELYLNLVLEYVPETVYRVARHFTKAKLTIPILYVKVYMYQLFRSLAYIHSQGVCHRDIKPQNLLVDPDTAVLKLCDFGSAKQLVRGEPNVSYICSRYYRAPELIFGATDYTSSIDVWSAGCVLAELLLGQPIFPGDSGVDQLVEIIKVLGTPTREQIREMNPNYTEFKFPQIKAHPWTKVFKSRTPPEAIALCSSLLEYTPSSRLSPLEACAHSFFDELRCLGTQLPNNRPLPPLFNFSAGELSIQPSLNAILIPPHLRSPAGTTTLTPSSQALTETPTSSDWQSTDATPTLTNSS
Turning to `Cc1cc(OC(=O)c2c(C)cc(OC(=O)c3c(C)cc(O)cc3O)cc2O)cc(O)c1C(=O)O`, the AC50 was > 30 µM (inactive).
With `NC(=O)c1ccsc1NC(=O)COC(=O)Cc1ccsc1` the figure was 28.6 µM; with `COc1ccc(-c2csc3ncnc(NCCCO)c23)cc1`, 20.6 µM.
With `CCCc1cc(C(N)=O)c(NC(=O)C2CCCO2)s1` (configuration not stated) the figure was > 30 µM (inactive); with `COc1ccc(/C=C2\Oc3cc(OCC(=O)N4CC(O)C[C@H]4C(=O)O)ccc3C2=O)cc1OC` (some centres not stated), > 30 µM (inactive).
The same measure for `Cc1ccnc(NC(=O)CN2C(=O)c3ccccc3S2(=O)=O)c1`: > 30 µM (inactive); for `O=C(O)c1[nH]c2ccc([N+](=O)[O-])cc2c1-c1ccccc1`: 11 µM; for `O=c1[nH]ncc(N/N=C\c2cccs2)c1Cl`: 6.07 µM.
As for `COc1ccccc1N1C(=O)C2C(c3ccc(F)cc3)NN(C(=O)c3ccc(C)cc3)C2C1=O` (configuration not stated), the AC50 was > 30 µM (inactive).
With `COc1ccc2nc(SCc3nc(N)nc(Nc4ccccc4)n3)[nH]c2c1`, the half-maximal activity concentration (AC50) is 12.5 µM.
As for `Cc1cccc(NC(=O)c2sc3nc4c(c(-c5cccs5)c3c2N)CN(C)CC4)c1`, the AC50 was > 30 µM (inactive).
With `O=C(Nc1ccccc1N1CCN(C(=O)c2ccccc2)CC1)c1ccc(Br)o1` the figure was 3.51 µM; with `CN(C)C(=O)Oc1ccc([N+](=O)[O-])cc1`, > 30 µM (inactive).
With `CCC(Sc1ccc2nnc(-c3cccnc3)n2n1)C(=O)O` (configuration not stated) the figure was > 30 µM (inactive); with `COc1cccc(C(=O)O/N=C(\N)c2ccccn2)c1OC`, > 30 µM (inactive).
With `O=S(=O)(c1ccc(Cl)nc1)N1CCN(Cc2ccc3c(c2)OCO3)CC1` the figure was > 30 µM (inactive).
As for `O=C(Nc1ccc(C(=O)NC2CCCCC2)cc1)c1cccnc1`, the AC50 is > 30 µM (inactive).
Regarding `CC(C)c1[nH]nc2c1C(c1ccco1)C(C#N)=C(N)O2` (configuration not stated), the AC50 was > 30 µM (inactive).
The same measure for `COc1cc(/C=N/NC(=O)c2ccncc2)ccc1OCCN1CCCCC1`: > 30 µM (inactive); for `CC1CCCCC12NC(=O)N(CC(=O)Nc1sc3c(c1C(N)=O)CCC3)C2=O` (configuration not stated): 11.4 µM.
With `Cc1ccc(N=C2NC(=O)/C(=C\c3ccco3)S2)cc1`, the AC50 is > 30 µM (inactive).
The same measure for `CSCCC1NC(=S)N(Cc2ccccc2)C1=O` (configuration not stated): > 30 µM (inactive); for `COc1ccc(-c2noc(CCC(=O)Nc3nc4ccccc4s3)n2)cc1`: > 30 µM (inactive); for `c1nc(NC2CCCCCC2)c2[nH]cnc2n1`: 29.8 µM.
Take `CC1(C)CC(NC(=O)COc2ccccc2Cl)CC(C)(C)N1`: the AC50 was > 30 µM (inactive).
With `CN(Cc1c(C(=O)N/N=C/c2ccc(F)cc2)nnn1-c1nonc1N)C1CCCCC1` the figure was > 30 µM (inactive).
The same measure for `O=S(=O)(O)c1ccc(N=Nc2ccccc2)cc1`: > 30 µM (inactive); for `CCOC(=O)c1sc(NC(=O)C2CC2)nc1C`: 15 µM; for `O=C(c1ccc2c3n(nc2c1)-c1ccc(Cl)cc1CO3)N1CCOCC1`: > 30 µM (inactive).
Turning to `Cn1c2ccc(F)cc2c2nc3ccccc3nc21`, the AC50 was > 30 µM (inactive).
With `CCCCn1c(SCC(=O)Nc2sc3c(c2C(N)=O)CCC3)nnc1-c1ccccc1` the figure was > 30 µM (inactive); with `CCOC(=O)c1sc(NC(=O)C2CCC2)cc1C`, > 30 µM (inactive); with `Clc1nccnc1N/N=C/c1ccc(Br)cc1`, > 30 µM (inactive).
The same measure for `CN(C)/N=C/c1cn(-c2ccccc2)nc1-c1cccnc1`: > 30 µM (inactive); for `O=C(NCCN1CCc2ccccc2C1)Nc1ccc(F)cc1`: > 30 µM (inactive).
On to `CC(=O)c1cc(-c2ccc(F)cc2)n(CCC(=O)Nc2cccnc2)c1C`, for which the AC50 is > 30 µM (inactive).
With `Nc1nc(SCC(=O)Nc2ccc(Oc3ccccc3)cc2)n[nH]1` the figure was > 30 µM (inactive).
On to `COc1cc2c(cc1OC)-c1nnc(C)n1C1(CCCC1)C2`, for which the AC50 was 30.2 µM.
The same measure for `CCOC(=O)C1CCCN(Cc2sccc2C)C1` (configuration not stated): > 30 µM (inactive); for `CC12CCC(C(=O)Nc3ncc([N+](=O)[O-])s3)(OC1=O)C2(C)C` (configuration not stated): > 30 µM (inactive).
The same measure for `COc1ccc(COC(=O)C2=C(C)NC(=O)NC2c2ccc(F)cc2)cc1` (configuration not stated): > 30 µM (inactive); for `Cc1ccc(NC(=O)C2CCN(c3ncnc4sc(C)c(C)c34)CC2)cc1S(=O)(=O)N(C)C`: > 30 µM (inactive); for `O=C1CCCC2=C1C(c1cccc(O)c1)c1c(ccc3ncccc13)N2` (configuration not stated): > 30 µM (inactive).
With `N#Cc1cnn2c3c(cnc12)C(=O)N1CCc2ccccc2C1C3` (configuration not stated) the figure was > 30 µM (inactive); with `CCOC(=O)c1nnn(-c2ccc(OC)cc2)c1N`, > 30 µM (inactive).
As for `Cc1ccc(N(CC(O)CN2CCCCC2)S(=O)(=O)c2ccc(C)cc2)cc1` (configuration not stated), the AC50 is > 30 µM (inactive).
As for `CN1CCN(c2ccc(NC(=O)c3ccc(Br)o3)cc2)CC1`, the AC50 was > 30 µM (inactive).
With `Nc1nc2n(n1)C(c1ccc(Cl)cc1)CC(c1ccc(F)cc1)N2` (configuration not stated), the AC50 is > 30 µM (inactive).
The same measure for `O=C(c1ccc2c3n(nc2c1)-c1ccccc1CO3)N1CCCCC1`: 26.4 µM.
With `Oc1ccc2oc3c(c2c1C=NCc1ccncc1)CCCC3` the figure was > 30 µM (inactive); with `O=C(Nc1cccc(-c2cnc3ccccc3n2)c1)c1ccncc1`, > 30 µM (inactive); with `COc1ccc(-c2cn3cccnc3n2)cc1NC(=O)C1CC1`, > 30 µM (inactive).
`Cn1c(=O)c2c(-c3ccccc3)n(Cc3ccccn3)cc2n(C)c1=O`: the AC50 is > 30 µM (inactive).
With `COc1cc(C2CC(=O)c3c([nH]c(C(=O)OCCOC(C)C)c3C)C2)cc(OC)c1OC` (configuration not stated) the figure was > 30 µM (inactive); with `NS(=O)(=O)c1cccc(NC(=O)CSc2nnc(-c3ccccc3)o2)c1`, > 30 µM (inactive).
`Nc1ccccc1-c1nc2ccccc2[nH]1`: the AC50 is > 30 µM (inactive).
The same measure for `COC(=O)C1=C(C)Nc2ncnn2C1c1ccccn1` (configuration not stated): > 30 µM (inactive); for `Nc1nonc1-n1nnc(C(=O)N/N=C\c2cccc(Cl)c2)c1CN1CCOCC1`: 15.2 µM; for `Cc1cc(C(C#N)c2ccccc2F)n2ncnc2n1` (configuration not stated): 1.87 µM.
For `CCOC(=O)c1ccc(NC(=O)CSCc2ccco2)cc1`, the AC50 is > 30 µM (inactive).
With `CCn1c2ccc(F)cc2c2nc3ccccc3nc21` the figure was > 30 µM (inactive).
With `COc1ccc(C(=O)O/N=C(\N)c2ccccn2)c(OC)c1` the figure was > 30 µM (inactive); with `O=C(c1ccc2c3n(nc2c1)-c1ccc(Cl)cc1CO3)N1CCCCC1`, > 30 µM (inactive).
With `COc1ccccc1C(=O)NC(C)c1ccccc1` (configuration not stated) the figure was > 30 µM (inactive); with `O=C(COc1ccccc1Cl)NC1CC1`, > 30 µM (inactive).
Turning to `Nc1nc(NCc2ccccc2)nc(NCc2ccccc2)c1[N+](=O)[O-]`, the AC50 was > 30 µM (inactive).
With `CCOc1cc(-c2nc3c(C)cccn3c2NCC2CCCO2)ccc1O` (configuration not stated), the AC50 is > 30 µM (inactive).
